US8748369B2, “Use of targeted nitroxide agents in bone healing” (University of Pittsburgh-Of the Commonwealth System of …, priority 2009, dated 2014)
Where “and” joins values, the source holds several entries; their conditions need not be identical. Equal entries are not always repeated. Where a SMILES comes first, the peptide text is derived from it. [ ]: non-standard residue; d: D form. The star is where a group is joined. NH(TEMPO-4-yl) = CC1(C)CC(N*)CC(C)(C)N1[O]; Orn = NCCC[C@H](N)C(=O)O; Cbz = O=C(OCc1ccccc1)*; Boc = CC(C)(C)OC(=O)*

How the values were obtained:
mouse embryonic cells [1] = experiment: Gamma irradiation induced superoxide generation and cardiolipin oxidation; format: cell-based; conditions: 10 Gy, 20 μM
Experimental: Oxidation-dependent fluorogenic dye, DHE was used to evaluate intracellular production of superoxide radicals. DHE is cell permeable and, in the presence of superoxide, is oxidized to fluorescent ethidium which intercalates into DNA. Briefly, cells were treated with 5 μM DHE for 30 min at the end of incubation. Cells were then collected by trypsinization and resuspended in PBS. The fluorescence of ethidium was measured using a FACScan flow cytometer (Becton-Dickinson, Rutherford, N.J.) supplied with the CellQuest software. Mean fluorescence intensity from 10,000 cells was acquired using a 585/42 nm bandpass filter.
CL hydroperoxides were determined by fluorescence HPLC of products formed in MP-11-catalyzed reaction with a fluorogenic substrate, Amplex Red. […] Shimadzu LC-100AT vp HPLC system equipped with fluorescence detector (RF-10Axl, Ex/Em=560/590 nm) and autosampler (SIL-10AD vp) were used for the analysis of products separated by HPLC (Eclipse XDB-C18 column, 5 μm, 150×4.6 mm) Mobile phase was composed of NaH2PO4 (25 mM, pH 7.0)/methanol (60:40 v/v).
(A) superoxide generation. […] Ethidium fluorescence was analyzed using a FACScan flow cytometer supplied with CellQuest software. Mean fluorescence intensity from 10,000 cells was acquired using a 585-nm bandpass filter. […] Cardiolipin hydroperoxides were determined using a fluorescent HPLC-based Amplex Red assay. […]

mouse embryonic cells [2] = experiment: Gamma irradiation induced apoptosis (cytochrome c release, PS externalization); format: cell-based
Experimental: Externalization of PS was analyzed by flow cytometry using annexin-V kit. Briefly, harvested cells were stained with annexin-V-FITC and PI for 5 min in dark prior to flow cytometry analysis. Ten thousand events were collected on a FACScan flow cytometer (Becton-Dickinson) supplied with CellQuest software.
(A) XJB-5-125 blocks γ-irradiation induced accumulation of cytochrome c in the cytosol of mouse embryonic cells. (B) Densitometry ratio of cytochrome c/actin. Semi-quantitation of the bands was carried out by densitometry using Labworks Image Acquisition and Analysis Software (UVP, Upland, Calif.). The level of cytochrome c release was expressed as the mean densitometry ratio of cytochrome c over actin. (C) Dose (5, 10 and 20 μM) dependent radioprotective effect of XJB-5-125 (pre-treatment) on γ-irradiation (10 Gy) induced phosphatidylserine (PS) externalization. After 48 h post-irradiation incubation, cells were harvested and stained with annexin-V-FITC and propodium iodide (PI) prior to flow cytometry analysis. (D) Time (2, 3, 4, 5, and 6 h) dependent radioprotective effect of XJB-5-125 (20 μM) on γ-irradiation (10 Gy) induced PS externalization (48 h post irradiation) in mouse embryonic cells. […] Externalization of PS was analyzed 72 h post-irradiation exposure. […]

[3] = log octanal/water (Ko/w) partition coefficient; format: physicochemical
From the text: A practical skin patch is planned for delivery of JP4-039 or other compounds delivered herein. The patch can be administered to a subject before, during or after exposure to radiation, including 24 hr or later after irradiation exposure of the subject. In preliminary studies, we sought to characterize the absorption/penetration of a topically applied representative GS-Nitroxide XJB-5-125 in mouse skin. XJB-5-125 was selected as a potential topical agent based on its ability to inhibit ROS generation, inhibit apoptosis and suppress oxidative damage to mitochondrial lipids. […] The physical properties of a chemical are critical to its ability to penetrate into and through the skin. Two important factors are the log octanal/water (Ko/w) partition coefficient and the molecular weight. For XJB-5-125, the log Ko/w=4.5 and molecular weight is 956. The lipophilicity “rule” is based on the need for a compound to partition out of the lipophilic stratum corneum and into the more hydrophilic epidermis and dermis.

[4] = test system: C57BL/6NHsd mice, tibial bone wounds; experiment: Unicortical tibial bone wound healing with or without 20 Gy limb irradiation; format: in vivo, mouse

| SMILES | gamma irradiation induced cardiolipin peroxidation (mouse embryonic cells [1]) | gamma irradiation induced superoxide generation (mouse embryonic cells [1]; 10-min before or 1-h after irradiation) | gamma irradiation induced apoptosis (mouse embryonic cells [2]; 10 Gy) | γ-irradiation induced accumulation of cytochrome c in the cytosol (mouse embryonic cells [2]; mouse embryonic cells) | log Ko/w [3] | bone wound healing in the absence of RT ([4]; 0 Gy) | Hole Diameter, mean ± SEM ([4]; 0 Gy, Day 7 post-drilling) [mm] | Hole Diameter, mean ± SEM ([4]; 0 Gy, Day 14 post-drilling) | Hole Diameter, mean ± SEM ([4]; 0 Gy, Day 21 post-drilling) [mm] | Hole Diameter, mean ± SEM ([4]; 0 Gy, Day 28 post-drilling) [mm] | Hole Diameter, mean ± SEM ([4]; 20 Gy, Day 7 post-drilling) [mm] | Hole Diameter, mean ± SEM ([4]; 20 Gy, Day 14 post-drilling) [mm] | Hole Diameter, mean ± SEM ([4]; 20 Gy, Day 21 post-drilling) | Hole Diameter, mean ± SEM ([4]; 20 Gy, Day 28 post-drilling) | RT-induced delay in osseus wound healing ([4]; given prior to 20 Gy RT) | histology: bone fill of wounds versus irradiated mice ([4]; pre-treated prior to irradiation) |
| --- | --- | --- | --- | --- | --- | --- | --- | --- | --- | --- | --- | --- | --- | --- | --- | --- |
| CC(C)C[C@H](NC(=O)OC(C)(C)C)C(=O)N[C@H](Cc1ccccc1)C(=O)N1CCC[C@H]1C(=O)N[C@H](C(=O)N[C@@H](CCCNC(=O)OCc1ccccc1)C(=O)NC1CC(C)(C)N([O])C(C)(C)C1)C(C)C [XJB-5-125] (Boc-L[dF]PV[Orn](Cbz)-{NH(TEMPO-4-yl)}) | protects | protects | protects | blocks | 4.5 | – | – | – | – | – | – | – | – | – | – | – |
| CC(C)C[C@@H](/C=C/CC(=O)NC1CC(C)(C)N([O])C(C)(C)C1)NC(=O)OC(C)(C)C [JP4-039, (S,E)-5-(tert-Butoxycarbonylamino)-7-methyloct-3-enoic acid-TEMPO] | – | – | – | – | – | conferred more rapid healing | 1.02 ± 0.07 | 0.6±0.05 mm and 0.55±0.03 mm | 0.47 ± 0.04 | 0.23 ± 0.04 | 1.14 ± 0.04 | 0.92 ± 0.08 | 0.5±0.05 mm and 0.51±0.05 mm | 0.4±0.04 mm and 0.37±0.04 mm | ameliorated this RT-induced delay | more bone fill |
